SMILES strings stand for the structures.

Consider 14 molecules from ChEMBL document CHEMBL1132329, “Synthesis and histone deacetylase inhibitory activity of new benzamide derivatives” (J Med Chem, 1999).

This assay addresses Histone deacetylase. Put plainly: Inhibitory activity against partially purified histone deacetylase of human leukemia K562 cells. It counts as cell-based.
Molecule `COc1ccc(N)c(NC(=O)c2ccc(CNC(=O)OCc3cccnc3)cc2)c1` yielded an IC50 of 4.6 µM.

Consider `O=C(NCc1ccc(C(=O)Nc2ccccc2)cc1)OCc1cccnc1`, for which the IC50 was more than 100 µM.

Molecule `Nc1ccc(NC(=O)c2ccc(CNC(=O)OCc3cccnc3)cc2)cc1` had an IC50 of more than 100 µM. In turn, `Cc1ccc(N)c(NC(=O)c2ccc(CNC(=O)OCc3cccnc3)cc2)c1` displayed an IC50 of 2.8 µM.

Molecule `Cc1ccc(NC(=O)c2ccc(CNC(=O)OCc3cccnc3)cc2)c(N)c1` returned an IC50 of more than 100 µM.

`Nc1cc(Cl)ccc1NC(=O)c1ccc(CNC(=O)OCc2cccnc2)cc1` registered an IC50 of 40 µM. The result for `COc1ccc(NC(=O)c2ccc(CNC(=O)OCc3cccnc3)cc2)c(N)c1` reads 44 µM; that for `Nc1ccc(Cl)cc1NC(=O)c1ccc(CNC(=O)OCc2cccnc2)cc1`, 7.7 µM.

For the molecule `O=C(NCc1ccc(C(=O)Nc2ccccc2O)cc1)OCc1cccnc1`, the IC50 was 2.2 µM. The molecule `Nc1ccc(F)cc1NC(=O)c1ccc(CNC(=O)OCc2cccnc2)cc1` had an IC50 of 6 µM. The result for `Nc1cccc(NC(=O)c2ccc(CNC(=O)OCc3cccnc3)cc2)c1` reads more than 100 µM; that for `CC(=O)Nc1ccccc1NC(=O)c1ccc(CNC(=O)OCc2cccnc2)cc1`, more than 100 µM.

With `Cc1cccc(NC(=O)c2ccc(CNC(=O)OCc3cccnc3)cc2)c1N`, the IC50 was more than 100 µM. With `CCCC(=O)[O-].[Na+]` [SODIUM BUTYRATE] the figure was 140 µM.
